# Values of other authors in US20210319872A1, “DRUG AND DEVICE COMBINATION PRODUCTS WITH IMPROVED SAFETY AND EFFICACY PROFILES” (priority 2016, published 2021).
# Read-outs that look alike come from different tables or passages of the source.
smiles,measurement,setting,value
COC(=O)C(c1ccccc1)C1CCCCN1 (stereo not drawn) [Methylphenidate],Aggressive behavior,in vivo,"Psychiatric: Aggressive behavior (Adult, 1.7%), Mania, Psychotic"
same,Decrease in appetite,in vivo,"appetite (Adult, 25.3%; pediatric, 2% to 9% or greater), Loss of"
same,Diaphoresis,in vivo,"Dermatologic: Diaphoresis (Adult, 5.1%)"
same,Dizziness,in vivo,"Neurologic: Dizziness (Adult, 6.7%; pediatric, 1.9%.), Headache"
same,Headache,in vivo,"(Adult, 22.2%; pediatric, up to 12%), Insomnia (Adult, 12.3%;"
same,Irritability,in vivo,"3.9%), Irritability (Adult, 5.8%)"
same,Nausea,in vivo,"(Adult, 12.8%), Vomiting (2% or greater), Xerostomia (Adult,"
same,"Serious side effect, Endocrine metabolic",in vivo,Endocrine metabolic: Decreased body growth
same,"Serious side effect, Gastrointestinal",in vivo,"Gastrointestinal: Gastrointestinal obstruction, with preexisting"
same,"Serious side effect, Hepatic",in vivo,Hepatic: Abnormal liver function
same,"Serious side effect, Psychiatric",in vivo,"Psychiatric: Aggressive behavior (Adult, 1.7%), Mania, Psychotic"
same,"Serious side effect, Reproductive",in vivo,Reproductive: Priapism
same,Tachycardia,in vivo,"Cardiovascular: Tachycardia (Adult, 4.8%)"
same,Vomiting,in vivo,"(Adult, 12.8%), Vomiting (2% or greater), Xerostomia (Adult,"
same,Weight decreased,in vivo,"Endocrine metabolic: Weight decreased (Adult, 6.5%)"
same,Xerostomia,in vivo,14%)
CC(=O)O[C@H]1CC[C@@]2(C)C(=CC[C@@H]3[C@@H]2CC[C@]2(C)C(c4cccnc4)=CC[C@@H]32)C1 [Zytiga],ALT/SGPT level raised,in vivo,"Hepatic: ALT/SGPT level raised (11.1% to 41.9%), AST/SGOT"
same,AST/SGOT level raised,in vivo,"level raised (30.6% to 37.3%), Serum bilirubin raised (6.6%)"
same,Adrenal insufficiency,in vivo,"Endocrine metabolic: Adrenal insufficiency (0.5%), Hypokalemia"
same,Alkaline phosphatase raised,in vivo,Hepatic: Alkaline phosphatase raised (Greater than 20%)
same,Anemia,in vivo,"Hematologic: Anemia (Greater than 20%), Lymphocytopenia, All"
same,Cardiac dysrhythmia,in vivo,"Cardiovascular: Cardiac dysrhythmia (7.2%), Cardiorespiratory"
same,Contusion,in vivo,"Dermatologic: Contusion (13.3%), Flushing (19% to 22.3%)"
same,Cough,in vivo,"Respiratory: Cough (10.6% to 17.3%), Dyspnea (11.8%)"
same,Dyspnea,in vivo,"Respiratory: Cough (10.6% to 17.3%), Dyspnea (11.8%)"
same,Fatigue,in vivo,Other: Fatigue (39.1%)
same,Flushing,in vivo,"Dermatologic: Contusion (13.3%), Flushing (19% to 22.3%)"
same,Hypercholesterolemia,in vivo,"Endocrine metabolic: Hypercholesterolemia (Greater than 20%),"
same,Hyperglycemia,in vivo,"Hyperglycemia (56.6%), Hypertriglyceridemia (62.5%),"
same,Hypertriglyceridemia,in vivo,"Hyperglycemia (56.6%), Hypertriglyceridemia (62.5%),"
same,Hypokalemia,in vivo,(17.2% to 28.3%)
same,Hypophosphatemia,in vivo,Hypophosphatemia (23.8%)
same,Joint swelling,in vivo,Musculoskeletal: Joint swelling (29.5% to 30.3%)
same,"Lymphocytopenia, All grades",in vivo,grades (38.2%)
same,"Lymphocytopenia, Grade 3 or 4",in vivo,"Hematologic: Lymphocytopenia, Grade 3 or 4 (8.7%)"
same,Serum bilirubin raised,in vivo,"level raised (30.6% to 37.3%), Serum bilirubin raised (6.6%)"
same,Urinary tract infectious disease,in vivo,Renal: Urinary tract infectious disease (11.5%)
CNC(=O)c1cc(Oc2ccc(NC(=O)Nc3ccc(Cl)c(C(F)(F)F)c3)cc2)ccn1 [Nexavar],Abdominal pain,hepatocellular carcinoma,31%
same,Acral erythema,hepatocellular carcinoma,"Dermatologic: Acral erythema (hepatocellular carcinoma, 21%;"
same,Alopecia,hepatocellular carcinoma,14%
same,Hypoalbuminemia,hepatocellular carcinoma,59%
same,Hypocalcemia,hepatocellular carcinoma,27%
same,Lymphocytopenia,hepatocellular carcinoma,"hepatocellular carcinoma, 47%), Thrombocytopenia (renal cell"
same,Thrombocytopenia,hepatocellular carcinoma,46%
same,Weight decreased,hepatocellular carcinoma,"decreased (hepatocellular carcinoma, 30%; renal cell carcinoma,"
same,Congestive heart failure,in vivo,"Cardiovascular: Congestive heart failure (1.9%), Hypertension,"
same,Hepatitis,in vivo,< 0.1%
same,"Hypertension, All grades",in vivo,"Cardiovascular: Hypertension, All grades (19.1%)"
same,"Hypertension, Grade 3 or 4",in vivo,4.3%
same,Infectious disease,in vivo,Immunologic: Infectious disease (10% or greater)
same,Pain,in vivo,≥ 10%
same,Prolonged QT interval,in vivo,(Less than 0.1%)
same,Rash,in vivo,≤ 35%
same,"Common side effect, Dermatologic",listed without frequency,Peeling of skin
same,"Serious side effect, Dermatologic",listed without frequency,Stevens-Johnson syndrome
same,"Serious side effect, Gastrointestinal",listed without frequency,"Gastrointestinal: Gastrointestinal hemorrhage, Gastrointestinal"
same,"Serious side effect, Respiratory",listed without frequency,Respiratory tract hemorrhage
same,Abdominal pain,renal cell carcinoma,"Gastrointestinal: Abdominal pain (renal cell carcinoma, 11%;"
same,Acral erythema,renal cell carcinoma,30%
same,Alopecia,renal cell carcinoma,27%
same,Hemorrhage,renal cell carcinoma,"Hematologic: Hemorrhage (renal cell carcinoma, 15.3%; thyroid"
same,Hypocalcemia,renal cell carcinoma,12%
same,Lymphocytopenia,renal cell carcinoma,"Hematologic: Lymphocytopenia (renal cell carcinoma, 23%;"
same,Thrombocytopenia,renal cell carcinoma,12%
same,Weight decreased,renal cell carcinoma,10%
same,"ALT/SGPT level raised, Grade 3 or higher",thyroid carcinoma,"carcinoma, 4%), AST/SGOT level raised, Grade 3 or 4 (thyroid"
same,"ALT/SGPT level raised, all grades",thyroid carcinoma,"59%), AST/SGOT level raised, All grades (thyroid carcinoma,"
same,"AST/SGOT level raised, All grades",thyroid carcinoma,54%)
same,"AST/SGOT level raised, Grade 3 or 4",thyroid carcinoma,2%
same,Abdominal pain,thyroid carcinoma,20%
same,Acral erythema,thyroid carcinoma,69%
same,Alopecia,thyroid carcinoma,67%
same,Decrease in appetite,thyroid carcinoma,30%
same,Hemorrhage,thyroid carcinoma,"carcinoma, 17.4%)"
same,Hypocalcemia,thyroid carcinoma,36%
same,Raised TSH level,thyroid carcinoma,41%
same,Squamous cell carcinoma of skin,thyroid carcinoma,3%
same,Weight decreased,thyroid carcinoma,49%
COC(=O)C1=C(C)NC(C)=C(C(=O)OCC(C)C)C1c1ccccc1[N+](=O)[O-] (stereo not drawn) [Nisoldipine (Sular)],Dizziness,in vivo,"Neurologic: Dizziness (5%), Headache (22%)"
same,Headache,in vivo,"Neurologic: Dizziness (5%), Headache (22%)"
same,Palpitations,in vivo,"Cardiovascular: Palpitations (3%), Peripheral edema (22%),"
same,Peripheral edema,in vivo,"Cardiovascular: Palpitations (3%), Peripheral edema (22%),"
same,Pharyngitis,in vivo,"Respiratory: Pharyngitis (5%), Sinusitis"
same,"Serious side effects, listed without incidence or only as rare",in vivo,Cardiovascular: Myocardial infarction
same,Vasodilatation,in vivo,Vasodilatation (4%)
CCCN(CCC)CCc1cccc2c1CC(=O)N2 [Ropinirole (Requip)],Abdominal pain,in vivo,"Gastrointestinal: Abdominal pain (6% to 7%), Constipation (4% to"
same,Constipation,in vivo,"Gastrointestinal: Abdominal pain (6% to 7%), Constipation (4% to"
same,Dyskinesia,in vivo,"syndrome, 11%), Dyskinesia (13% to 34%), Headache (6%),"
same,Fatigue,in vivo,Other: Fatigue (8% to 11%)
same,Hallucinations,in vivo,Psychiatric: Hallucinations (5% to 10%)
same,Headache,in vivo,"syndrome, 11%), Dyskinesia (13% to 34%), Headache (6%),"
same,Hypotension,in vivo,"Cardiovascular: Hypotension (2% to 25%), Orthostatic hypotension"
same,Nausea,in vivo,"5%), Nausea (11% to 60%), Vomiting (7% to 12%)"
same,Orthostatic hypotension,in vivo,(Up to 23%)
same,Syncope,in vivo,"disease, 1% to 12%; restless leg syndrome, 1%)"
same,Vomiting,in vivo,"5%), Nausea (11% to 60%), Vomiting (7% to 12%)"
CNCCC(Oc1ccc(C(F)(F)F)cc1)c1ccccc1 (stereo not drawn) [Fluoxetine (Prozac)],Anxiety,in vivo,"Psychiatric: Anxiety (3% to 15%), Feeling nervous (3% to 14%)"
same,Asthenia,in vivo,"Neurologic: Asthenia (7% to 21%), Dizziness (2% to 11%),"
same,Diarrhea,in vivo,"Gastrointestinal: Diarrhea (8% to 18%), Indigestion (6% to 10%),"
same,Dizziness,in vivo,"Neurologic: Asthenia (7% to 21%), Dizziness (2% to 11%),"
same,Feeling nervous,in vivo,"Psychiatric: Anxiety (3% to 15%), Feeling nervous (3% to 14%)"
same,Indigestion,in vivo,"Gastrointestinal: Diarrhea (8% to 18%), Indigestion (6% to 10%),"
same,Influenza-like symptoms,in vivo,Other: Influenza-like symptoms (3% to 12%)
same,Insomnia,in vivo,"Insomnia (9% to 33%), Somnolence (5% to 17%), Tremor (3% to"
same,Nausea,in vivo,"Loss of appetite (3.8% to 17%), Nausea (12% to 29%), Xerostomia"
same,Pharyngitis,in vivo,"Respiratory: Pharyngitis (3% to 11%), Rhinitis (16% to 23%)"
same,Rhinitis,in vivo,"Respiratory: Pharyngitis (3% to 11%), Rhinitis (16% to 23%)"
same,Seizure,in vivo,Neurologic: Seizure (0.2%)
same,Xerostomia,in vivo,(4% to 12%)
CCCCCCCCc1ccc(CCC(N)(CO)CO)cc1 [Gilenya],Increased liver enzymes,"5 times ULN or greater (ALT, AST)","times ULN or greater (ALT, AST), 4.5%)"
same,Increased liver enzymes,All elevations (ALT/GGT/AST),15%
same,Infectious disease,All infections,72%
same,Abdominal pain,in vivo,11%
same,Atrioventricular block,in vivo,"Cardiovascular: Atrioventricular block (up to 4.7%),"
same,Backache,in vivo,"Musculoskeletal: Backache (10%), Pain, In Extremity (10%)"
same,Bradyarrhythmia,in vivo,Bradyarrhythmia (3%.)
same,Cough,in vivo,12%
same,Diarrhea,in vivo,13%
same,Headache,in vivo,Neurologic: Headache (25%)
same,Herpesvirus infection,in vivo,"Immunologic: Cryptococcosis, Herpesvirus infection (9%),"
same,Influenza,in vivo,Immunologic: Influenza (11%)
same,Lymphocytopenia (Severe),in vivo,Hematologic: Lymphocytopenia (Severe) (7%)
same,"Pain, In Extremity",in vivo,"Musculoskeletal: Backache (10%), Pain, In Extremity (10%)"
same,Sinusitis,in vivo,11%
same,"Serious side effect, Dermatologic",listed without frequency,Dermatologic: Malignant melanoma
same,"Serious side effect, Immunologic",listed without frequency,"Immunologic: Cryptococcosis, Herpesvirus infection (9%),"
same,"Serious side effect, Neurologic",listed without frequency,Cryptococcal meningitis
same,Infectious disease,serious infections,2.3%
same,Increased liver enzymes,"up to 3 times ULN (ALT, AST)",14%
CCCCNc1cc(C(=O)O)cc(S(N)(=O)=O)c1Oc1ccccc1 [Bumetanide (Bumex)],Azotemia (incidence),in vivo,Renal: Azotemia (10.6%)
same,Cramp (incidence),in vivo,Musculoskeletal: Cramp (1.1%)
same,Dizziness (incidence),in vivo,"Neurologic: Dizziness (1.1%), Headache (0.6%)"
same,Encephalopathy (incidence),in vivo,Neurologic: Encephalopathy (0.6%)
same,Headache (incidence),in vivo,"Neurologic: Dizziness (1.1%), Headache (0.6%)"
same,Hyperuricemia (incidence),in vivo,"Endocrine metabolic: Hyperuricemia (18.4%), Hypochloremia"
same,Hypochloremia (incidence),in vivo,"(14.9%), Hypokalemia (14.7%)"
same,Hypokalemia (incidence),in vivo,"(14.9%), Hypokalemia (14.7%)"
same,Hypotension (incidence),in vivo,Cardiovascular: Hypotension (0.8%)
same,Nausea (incidence),in vivo,Gastrointestinal: Nausea (0.6%)
same,Serious side effect listed (incidence not given),in vivo,Dermatologic: Stevens-Johnson syndrome
same,Thrombocytopenia (incidence),in vivo,Hematologic: Thrombocytopenia (0.2%)
